Source: the supplement of paper PMC11451515

Test system: P12-Ichikawa
Assay: cell viability relative to DMSO control; higher = less cytotoxic
Settings: 48 h
Method in brief: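 Viability was expressed as a per-plate percentage of DMSO wells, with cell-free wells as background. Leukemia cells (NOMO1 or SEM at 500 cells/well, P12-Ichikawa at 1000 cells/well) were adapted for at least four passages in each medium and seeded in 1536-well plates (5 μl). Library compounds in DMSO were pin-dosed over an 11-point threefold series from 47 μM to 0.79 nM, and CellTiter-Glo One luminescence was read after 48 h at 37°C.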

[1] = HPLM + 10% dialyzed FBS, 0.000781 µM
[2] = HPLM + 10% dialyzed FBS, 0.00234 µM
[3] = HPLM + 10% dialyzed FBS, 0.00702 µM
[4] = HPLM + 10% dialyzed FBS, 0.0211 µM
[5] = HPLM + 10% dialyzed FBS, 0.0632 µM
[6] = HPLM + 10% dialyzed FBS, 0.19 µM
[7] = HPLM + 10% dialyzed FBS, 0.569 µM
[8] = HPLM + 10% dialyzed FBS, 1.71 µM
[9] = HPLM + 10% dialyzed FBS, 5.12 µM
[10] = HPLM + 10% dialyzed FBS, 15.4 µM
[11] = HPLM + 10% dialyzed FBS, 46.1 µM
[12] = RPMI 5 mM glucose + 10% FBS, 0.000781 µM
[13] = RPMI 5 mM glucose + 10% FBS, 0.00234 µM
[14] = RPMI 5 mM glucose + 10% FBS, 0.00702 µM
[15] = RPMI 5 mM glucose + 10% FBS, 0.0211 µM
[16] = RPMI 5 mM glucose + 10% FBS, 0.0632 µM
[17] = RPMI 5 mM glucose + 10% FBS, 0.19 µM
[18] = RPMI 5 mM glucose + 10% FBS, 0.569 µM
[19] = RPMI 5 mM glucose + 10% FBS, 1.71 µM
[20] = RPMI 5 mM glucose + 10% FBS, 5.12 µM
[21] = RPMI 5 mM glucose + 10% FBS, 15.4 µM
[22] = RPMI 5 mM glucose + 10% FBS, 46.1 µM
[23] = RPMI 5 mM glucose + 10% dialyzed FBS, 0.000781 µM
[24] = RPMI 5 mM glucose + 10% dialyzed FBS, 0.00234 µM
[25] = RPMI 5 mM glucose + 10% dialyzed FBS, 0.00702 µM
[26] = RPMI 5 mM glucose + 10% dialyzed FBS, 0.0211 µM
[27] = RPMI 5 mM glucose + 10% dialyzed FBS, 0.0632 µM
[28] = RPMI 5 mM glucose + 10% dialyzed FBS, 0.19 µM
[29] = RPMI 5 mM glucose + 10% dialyzed FBS, 0.569 µM
[30] = RPMI 5 mM glucose + 10% dialyzed FBS, 1.71 µM
[31] = RPMI 5 mM glucose + 10% dialyzed FBS, 5.12 µM
[32] = RPMI 5 mM glucose + 10% dialyzed FBS, 15.4 µM
[33] = RPMI 5 mM glucose + 10% dialyzed FBS, 46.1 µM

| Compound | cell viability [1] [%] | cell viability [2] [%] | cell viability [3] [%] | cell viability [4] [%] | cell viability [5] [%] | cell viability [6] [%] | cell viability [7] [%] | cell viability [8] [%] | cell viability [9] [%] | cell viability [10] [%] | cell viability [11] [%] | cell viability [12] [%] | cell viability [13] [%] | cell viability [14] [%] | cell viability [15] [%] | cell viability [16] [%] | cell viability [17] [%] | cell viability [18] [%] | cell viability [19] [%] | cell viability [20] [%] | cell viability [21] [%] | cell viability [22] [%] | cell viability [23] [%] | cell viability [24] [%] | cell viability [25] [%] | cell viability [26] [%] | cell viability [27] [%] | cell viability [28] [%] | cell viability [29] [%] | cell viability [30] [%] | cell viability [31] [%] | cell viability [32] [%] | cell viability [33] [%] |
| --- | --- | --- | --- | --- | --- | --- | --- | --- | --- | --- | --- | --- | --- | --- | --- | --- | --- | --- | --- | --- | --- | --- | --- | --- | --- | --- | --- | --- | --- | --- | --- | --- | --- |
| COc1cc(NCc2ccc3nc(N)nc(N)c3c2C)cc(OC)c1OC | 88.8 | 88.8 | 95.8 | 101 | 99 | 94.4 | 79.4 | 62.2 | 32.9 | 24.7 | 14.7 | 82.4 | 91.7 | 86.1 | 91.5 | 96.4 | 88.4 | 96.1 | 87.8 | 68.6 | 58.9 | 1.49 | 73.2 | 82.4 | 82.7 | 87.5 | 96.2 | 87.6 | 88.3 | 85.9 | 65.7 | 26.1 | 1.75 |
| CNC[C@H](O)[C@@H](O)[C@H](O)[C@H](O)CO | 114 | 124 | 122 | 130 | 123 | 125 | 120 | 134 | 128 | 119 | 119 |  |  |  |  |  |  |  |  |  |  |  | 109 | 126 | 124 | 125 | 125 | 126 | 122 | 131 | 123 | 119 | 126 |
| C[C@@H]1CC[C@@]2(CC[C@]3(C)\C(=C/C[C@@H]4[C@@]5(C)CC[C@H](O)C(C)(C)[C@@H]5CC[C@@]34C)[C@@H]2[C@H]1C)C(O)=O | 112 | 117 | 113 | 109 | 120 | 117 | 109 | 116 | 115 | 125 | 113 | 117 | 112 | 104 | 113 | 118 | 116 | 116 | 116 | 116 | 124 | 115 | 99.7 | 106 | 106 | 112 | 123 | 114 | 115 | 110 | 119 | 109 | 113 |
| CC1(C)CC\C2=C(/O1)C3=C(C=CC=C3)C(=O)C2=O | 112 | 118 | 114 | 116 | 106 | 111 | 110 | 102 | 104 | 99.4 | 2.4 | 113 | 106 | 94.9 | 102 | 112 | 109 | 105 | 98.3 | 105 | 90.5 | 0.954 | 107 | 119 | 100 | 101 | 108 | 96.6 | 109 | 89.2 | 102 | 94.9 | 1.41 |
| Oc1cc(-c2nc(-c3ccccc3)[nH]c2-c2ccncc2)ccc1Cl | 109 | 110 | 110 | 115 | 118 | 117 | 106 | 101 | 92.7 | 82.9 | 65.7 | 122 | 111 | 117 | 122 | 119 | 118 | 111 | 113 | 84.7 | 74.5 | 45.2 |  |  |  |  |  |  |  |  |  |  |  |
| C=CC(=O)Nc1cccc(Sc2nc(Nc3ccc(N4CCN(C)CC4)cc3)ncc2Cl)c1 | 105 | 108 | 109 | 112 | 107 | 121 | 122 | 118 | 115 | 118 | 22.2 | 95.7 | 107 | 113 | 121 | 116 | 122 | 120 | 115 | 124 | 117 | 19.2 | 104 | 115 | 110 | 114 | 118 | 120 | 123 | 124 | 123 | 126 | 26.3 |
| CC1(C)SCCN([S+](=O)([O-])c2ccc(OCC#CCO)cc2)[C@H]1C(=O)NO | 103 | 108 | 107 | 98.9 | 104 | 103 | 98.5 | 90.9 | 91.2 | 93.4 | 95.1 | 106 | 95.5 | 101 | 98.7 | 101 | 95.8 | 104 | 87.5 | 87.9 | 80.6 | 89.2 | 97 | 97.7 | 101 | 103 | 89.8 | 88.3 | 88.1 | 91.9 | 86.9 | 85.4 | 83.6 |
| CCCOc1ccc(C(=O)OCCN(CC)CC)cc1N | 106 | 116 | 79.2 | 113 | 122 | 119 | 122 | 123 | 125 | 119 | 118 | 104 | 130 | 69.2 | 112 | 129 | 128 | 130 | 126 | 133 | 115 | 120 | 100 | 115 | 72.8 | 111 | 125 | 123 | 123 | 122 | 130 | 127 | 110 |
| CN(C)C/C=C/C(=O)Nc1ccc(C(=O)Nc2cccc(Nc3ncc(Cl)c(-c4c[nH]c5ccccc45)n3)c2)cc1 | 81.9 | 85.6 | 85.8 | 94.8 | 82.5 | 78.6 | 17.3 | 10.2 | 4.95 | 3.8 | 3.94 | 78 | 85.3 | 84.2 | 89 | 92.9 | 77.1 | 12.3 | 6.62 | 3.34 | 2.59 | 3.22 | 79.7 | 82.9 | 93 | 97 | 93.2 | 77.6 | 17.9 | 11.6 | 5.08 | 2.82 | 3.14 |
| Oc1ccc(OCc2ccccc2)cc1 | 114 | 114 | 119 | 105 | 119 | 102 | 115 | 103 | 90.1 | 69.9 | 65.3 | 114 | 116 | 111 | 127 | 106 | 114 | 109 | 93.7 | 83.4 | 68.4 | 64.8 | 105 | 115 | 114 | 117 | 106 | 115 | 107 | 86.5 | 75.2 | 52.4 | 44.6 |
| CC(C(C)N1CC(=O)NC(=O)C1)N1CC(=O)NC(=O)C1 (stereo not given) | 117 | 123 | 121 | 119 | 131 | 130 | 130 | 117 | 109 | 102 | 89.6 |  |  |  |  |  |  |  |  |  |  |  |  |  |  |  |  |  |  |  |  |  |  |
| Cc1ccc([C@@H]2O[C@H](CO)[C@@H](O)[C@H](O)[C@H]2O)cc1Cc1ccc(-c2ccc(F)cc2)s1 | 119 | 112 | 119 | 116 | 126 | 127 | 126 | 127 | 127 | 125 | 90.3 | 118 | 121 | 135 | 130 | 129 | 132 | 128 | 126 | 131 | 125 | 77.7 | 114 | 117 | 118 | 121 | 132 | 132 | 134 | 131 | 118 | 120 | 69.9 |
| Nc1n[nH]c2nnc(-c3c(-c4ccccc4)nn4ccccc34)cc12 | 104 | 117 | 112 | 120 | 126 | 126 | 120 | 118 | 90 | 18.8 | 10.6 | 109 | 116 | 123 | 118 | 134 | 119 | 141 | 138 | 95.3 | 17.7 | 9.91 | 113 | 116 | 128 | 121 | 133 | 134 | 136 | 131 | 132 | 53.6 | 17.9 |
| COc1ccc(CCC(=O)c2c(O)cc(O[C@@H]3O[C@H](CO)[C@@H](O)[C@H](O)[C@H]3O[C@@H]3O[C@@H](C)[C@H](O)[C@@H](O)[C@H]3O)cc2O)cc1O | 115 | 117 | 116 | 110 | 119 | 116 | 117 | 113 | 107 | 107 | 38.8 |  |  |  |  |  |  |  |  |  |  |  | 105 | 115 | 118 | 116 | 108 | 114 | 111 | 113 | 107 | 106 | 105 |
| COc1cc2c(cc1OC)[C@@H]1Cc3ccc(OC)c(OC)c3CN1CC2 | 110 | 114 | 114 | 113 | 118 | 117 | 112 | 106 | 112 | 99.1 | 94.5 |  |  |  |  |  |  |  |  |  |  |  | 111 | 117 | 119 | 109 | 110 | 110 | 124 | 117 | 109 | 97.2 | 80.3 |
| Cc1ccc(C(=O)Nc2cccc(C(F)(F)F)c2)cc1Nc1nc(-c2cccnc2)nc2c1cnn2C | 88.1 | 90.8 | 93.7 | 89.5 | 91.2 | 90 | 86.6 | 85.9 | 83.3 | 86.7 | 84 | 73.1 | 83.8 | 88.9 | 85.6 | 83.9 | 82.8 | 87.5 | 88.2 | 79.5 | 78.8 | 74.5 | 90.8 | 85.2 | 87.6 | 86.7 | 95.5 | 84.7 | 90.9 | 96.7 | 75.8 | 76.8 | 86.5 |
| CCCN[C@H]1CCc2nc(N)sc2C1 | 92.8 | 104 | 98 | 98.4 | 101 | 107 | 101 | 110 | 103 | 104 | 107 | 94.3 | 90.5 | 107 | 104 | 107 | 110 | 107 | 111 | 114 | 114 | 120 | 85.6 | 95.1 | 90.4 | 93.6 | 96 | 101 | 96.1 | 93.6 | 94.9 | 96.9 | 106 |
